Experimental data from ChEMBL document CHEMBL3774320, “SAR exploration at the C-3 position of tetrahydro-β-carboline sstr3 antagonists” (Bioorg Med Chem Lett, 2016).

How the values were obtained:
Mus musculus [1] = experiment: Dose normalized AUC in mouse at 2 mg/kg, po; type: ADME, organism-based; conditions: in vivo
Mus musculus [2] = experiment: Decrease in glucose excursion in mouse at 10 mg/kg, po by Glucose tolerance test; type: functional; set-up: scale not given: the % may be the effect or the level left
[3] = target: T1, Somatostatin receptor type 3 (Homo sapiens, UniProt P32745)
Description: Antagonist activity at human somatostatin receptor type 3 assessed as inhibition of cAMP levels

Mus musculus [4] = experiment: Decrease in glucose excursion in mouse at 0.1 mg/kg, po by Glucose tolerance test; type: functional; set-up: scale not given: the % may be the effect or the level left
[5] = Clearance in mouse plasma at 1 mg/kg, iv; type: ADME, organism-based
[6] = Half life in mouse at 1 mg/kg, iv; type: ADME, organism-based; conditions: in vivo
[7] = Volume of distribution at steady state in mouse at 1 mg/kg, iv and at 2 mg/kg, po; type: ADME, organism-based; conditions: in vivo, read-out: Vdss
[8] = Oral bioavailability in mouse at 2 mg/kg; type: ADME, organism-based; conditions: in vivo
Mus musculus [9] = experiment: Decrease in glucose excursion in mouse at 0.03 mg/kg, po by Glucose tolerance test; type: functional; set-up: scale not given: the % may be the effect or the level left
Mus musculus [10] = experiment: Decrease in glucose excursion in mouse at 0.3 mg/kg, po by Glucose tolerance test; type: functional; set-up: scale not given: the % may be the effect or the level left
Mus musculus [11] = experiment: Decrease in glucose excursion in mouse at 1 mg/kg, po by Glucose tolerance test; type: functional; set-up: scale not given: the % may be the effect or the level left
Mus musculus [12] = experiment: Decrease in glucose excursion in mouse at 3 mg/kg, po by Glucose tolerance test; type: functional; set-up: scale not given: the % may be the effect or the level left
[13] = target: Somatostatin receptor type 1 (Homo sapiens, UniProt P30872); experiment: Binding affinity to somatostatin receptor type 1 (unknown origin)
[14] = target: Somatostatin receptor type 2 (Homo sapiens, UniProt P30874); experiment: Binding affinity to somatostatin receptor type 2 (unknown origin)
[15] = target: Somatostatin receptor type 4 (Homo sapiens, UniProt P31391); experiment: Binding affinity to somatostatin receptor type 4 (unknown origin)
[16] = target: Somatostatin receptor type 5 (Homo sapiens, UniProt P35346); experiment: Binding affinity to somatostatin receptor type 5 (unknown origin)
[17] = target: T1, Somatostatin receptor type 3; remark: listed apart in the source
Description: Binding affinity to human somatostatin receptor type 3

[18] = target: Voltage-gated inwardly rectifying potassium channel KCNH2 (Homo sapiens, UniProt Q12809); experiment: Binding affinity to human ERG
Sequence of Voltage-gated inwardly rectifying potassium channel KCNH2 (Q12809 whole entry): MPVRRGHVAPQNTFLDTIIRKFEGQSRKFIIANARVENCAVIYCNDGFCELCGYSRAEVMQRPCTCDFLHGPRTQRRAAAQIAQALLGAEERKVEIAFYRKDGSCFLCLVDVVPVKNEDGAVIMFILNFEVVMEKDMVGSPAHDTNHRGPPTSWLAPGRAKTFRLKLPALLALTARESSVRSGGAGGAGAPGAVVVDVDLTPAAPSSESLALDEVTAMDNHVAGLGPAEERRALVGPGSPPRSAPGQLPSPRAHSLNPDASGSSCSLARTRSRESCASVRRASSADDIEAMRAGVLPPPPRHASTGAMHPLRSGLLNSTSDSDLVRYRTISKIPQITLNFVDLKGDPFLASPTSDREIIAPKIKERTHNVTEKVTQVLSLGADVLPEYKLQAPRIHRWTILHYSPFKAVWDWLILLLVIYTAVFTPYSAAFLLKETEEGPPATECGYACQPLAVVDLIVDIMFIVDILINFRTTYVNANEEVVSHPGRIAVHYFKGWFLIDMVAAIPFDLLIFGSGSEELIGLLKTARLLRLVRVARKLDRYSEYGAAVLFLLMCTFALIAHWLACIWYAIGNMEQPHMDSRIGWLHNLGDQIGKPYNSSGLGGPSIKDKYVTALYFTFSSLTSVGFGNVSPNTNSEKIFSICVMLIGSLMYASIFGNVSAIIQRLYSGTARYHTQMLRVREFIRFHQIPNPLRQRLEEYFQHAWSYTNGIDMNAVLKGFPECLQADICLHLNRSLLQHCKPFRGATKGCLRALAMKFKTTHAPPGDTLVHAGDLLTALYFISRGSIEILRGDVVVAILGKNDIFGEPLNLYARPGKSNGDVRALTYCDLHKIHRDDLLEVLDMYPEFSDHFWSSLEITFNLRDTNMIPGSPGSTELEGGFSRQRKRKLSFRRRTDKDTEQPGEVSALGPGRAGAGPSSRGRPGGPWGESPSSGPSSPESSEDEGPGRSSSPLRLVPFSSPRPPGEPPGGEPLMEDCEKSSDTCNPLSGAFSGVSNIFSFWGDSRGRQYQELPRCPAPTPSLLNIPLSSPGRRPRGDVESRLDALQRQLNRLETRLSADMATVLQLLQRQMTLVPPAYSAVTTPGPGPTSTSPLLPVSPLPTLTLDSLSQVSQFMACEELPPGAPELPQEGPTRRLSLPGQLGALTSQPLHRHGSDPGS

T1 sequence (P32745 whole entry): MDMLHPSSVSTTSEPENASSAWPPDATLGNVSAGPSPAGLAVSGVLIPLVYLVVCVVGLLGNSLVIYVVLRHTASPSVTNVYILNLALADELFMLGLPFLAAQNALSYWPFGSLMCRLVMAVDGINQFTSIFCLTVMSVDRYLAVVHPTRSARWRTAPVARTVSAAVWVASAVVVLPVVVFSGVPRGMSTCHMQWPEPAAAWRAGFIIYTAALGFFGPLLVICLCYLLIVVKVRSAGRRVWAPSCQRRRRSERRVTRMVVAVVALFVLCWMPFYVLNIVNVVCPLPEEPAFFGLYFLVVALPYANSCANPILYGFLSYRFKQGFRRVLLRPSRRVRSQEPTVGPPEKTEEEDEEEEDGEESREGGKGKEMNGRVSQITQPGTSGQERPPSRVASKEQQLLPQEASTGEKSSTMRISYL
Sequence of Somatostatin receptor type 1 (P30872 whole entry): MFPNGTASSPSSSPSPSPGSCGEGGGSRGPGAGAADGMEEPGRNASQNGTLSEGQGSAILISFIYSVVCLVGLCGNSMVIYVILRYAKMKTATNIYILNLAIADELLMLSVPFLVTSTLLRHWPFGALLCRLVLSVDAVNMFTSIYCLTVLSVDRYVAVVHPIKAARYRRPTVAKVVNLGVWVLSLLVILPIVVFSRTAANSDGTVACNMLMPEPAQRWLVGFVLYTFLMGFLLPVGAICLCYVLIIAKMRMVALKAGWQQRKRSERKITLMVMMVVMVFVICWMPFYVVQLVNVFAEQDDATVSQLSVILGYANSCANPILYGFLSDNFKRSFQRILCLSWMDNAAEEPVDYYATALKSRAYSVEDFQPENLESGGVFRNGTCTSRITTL
Sequence of Somatostatin receptor type 5 (P35346 whole entry): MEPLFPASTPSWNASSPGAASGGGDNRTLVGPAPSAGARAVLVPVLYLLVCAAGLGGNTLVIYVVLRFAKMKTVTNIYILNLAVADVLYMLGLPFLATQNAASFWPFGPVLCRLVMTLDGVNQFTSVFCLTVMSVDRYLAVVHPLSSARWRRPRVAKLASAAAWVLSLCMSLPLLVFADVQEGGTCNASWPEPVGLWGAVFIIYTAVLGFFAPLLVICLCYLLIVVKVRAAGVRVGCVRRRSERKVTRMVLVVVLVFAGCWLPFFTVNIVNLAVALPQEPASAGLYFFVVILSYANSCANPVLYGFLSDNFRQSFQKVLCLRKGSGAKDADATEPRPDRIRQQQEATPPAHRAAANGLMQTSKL
Sequence of Somatostatin receptor type 4 (P31391 whole entry): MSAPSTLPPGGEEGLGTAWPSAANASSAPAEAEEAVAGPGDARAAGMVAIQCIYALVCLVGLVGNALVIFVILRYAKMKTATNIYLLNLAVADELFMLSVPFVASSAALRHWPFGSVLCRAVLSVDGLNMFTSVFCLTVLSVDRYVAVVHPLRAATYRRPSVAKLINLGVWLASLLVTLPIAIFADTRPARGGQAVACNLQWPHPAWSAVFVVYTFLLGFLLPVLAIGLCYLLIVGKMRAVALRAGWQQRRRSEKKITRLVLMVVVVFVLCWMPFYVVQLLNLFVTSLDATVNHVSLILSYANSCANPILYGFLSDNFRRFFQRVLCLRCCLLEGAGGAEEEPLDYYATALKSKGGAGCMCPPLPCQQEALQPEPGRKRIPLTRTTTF
Sequence of Somatostatin receptor type 2 (P30874 whole entry): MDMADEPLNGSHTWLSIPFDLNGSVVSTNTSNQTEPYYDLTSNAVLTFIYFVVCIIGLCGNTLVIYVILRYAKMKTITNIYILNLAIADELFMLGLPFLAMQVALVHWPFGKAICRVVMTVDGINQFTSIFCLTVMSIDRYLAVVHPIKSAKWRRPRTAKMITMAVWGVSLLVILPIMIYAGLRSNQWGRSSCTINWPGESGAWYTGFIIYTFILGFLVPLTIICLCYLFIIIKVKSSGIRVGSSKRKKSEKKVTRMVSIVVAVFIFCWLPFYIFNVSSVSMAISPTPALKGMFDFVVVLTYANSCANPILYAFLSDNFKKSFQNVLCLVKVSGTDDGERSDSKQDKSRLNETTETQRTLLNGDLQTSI

SMILES | EC50 [3] [nM] | IC50 [17] [nM] | other results
c1ccc(-c2c[nH]c([C@H]3Cc4c([nH]c5ccccc45)[C@@H](C4CCOCC4)N3)n2)cc1 | 22 |  | AUC/dose (Mus musculus [1]): 1.25 µM·h/mg/kg; Activity (Mus musculus [2]): 75%
Cc1nc([C@]2(c3cnn(C)c3)N[C@@H](c3nc(-c4ccc(F)cc4)c[nH]3)Cc3c2[nH]c2ccccc32)no1 |  |  | Activity (Mus musculus [4]): 94%
Fc1ccc(-c2c[nH]c([C@H]3Cc4c([nH]c5ccccc45)[C@@H](C4CCOCC4)N3)n2)cc1 | 5.7 |  | AUC/dose (Mus musculus [1]): 5.58 µM·h/mg/kg; clearance [5]: 5.9 mL/min/kg; half-life [6]: 3.6 h; Vd [7]: 1.8 L/kg; bioavailability [8]: 82%; Activity (Mus musculus [2]): 79%
Cc1nc([C@]2(c3cnn(C)c3)N[C@@H](c3nc(-c4ccc(F)cn4)c[nH]3)Cc3c2[nH]c2ccccc32)no1 |  |  | Activity (Mus musculus [4]): 46%; Activity (Mus musculus [9]): 40%; Activity (Mus musculus [10]): 57%; Activity (Mus musculus [11]): 87%; Activity (Mus musculus [12]): 93%; IC50 [13]: 2300 nM; IC50 [14]: > 10000 nM; IC50 [15]: 3200 nM; IC50 [16]: 10000 nM
O=C(O)c1cccc(-c2c[nH]c([C@H]3Cc4c([nH]c5ccccc45)[C@@H](C4CCOCC4)N3)n2)c1 |  | > 1330 | 
Fc1ccccc1-c1c[nH]c([C@H]2Cc3c([nH]c4ccccc34)[C@@H](C3CCOCC3)N2)n1 | 30 | 18 | 
CS(=O)(=O)c1ccc(-c2c[nH]c([C@H]3Cc4c([nH]c5ccccc45)[C@@H](C4CCOCC4)N3)n2)cc1 | > 1000 | > 1330 | 
c1ccc2c3c([nH]c2c1)[C@@H](C1CCOCC1)N[C@@H](c1nc(-c2ccsc2)c[nH]1)C3 | 48 | 15 | 
COc1cccc(-c2c[nH]c([C@H]3Cc4c([nH]c5ccccc45)[C@](c4cnn(C)c4)(c4noc(C)n4)N3)n2)n1 | 4.8 | 2.1 | 
Cn1cc(-c2ccc(F)cc2)nc1[C@H]1Cc2c([nH]c3ccccc23)[C@H](C2CCOCC2)N1 |  | 1330 | 
Cc1ccc(-c2c[nH]c([C@H]3Cc4c([nH]c5ccccc45)[C@@H](C4CCOCC4)N3)n2)cc1 | 113 | 33 | 
Cc1nc([C@@]2(c3cnn(C)c3)N[C@@H](c3nc(-c4ccccn4)c[nH]3)Cc3c2[nH]c2ccccc32)no1 | 77 | 24 | 
Fc1cccc(-c2c[nH]c([C@H]3Cc4c([nH]c5ccccc45)[C@@H](C4CCOCC4)N3)n2)c1 | 88 | 8.2 | 
c1cncc(-c2c[nH]c([C@H]3Cc4c([nH]c5ccccc45)[C@@H](C4CCOCC4)N3)n2)c1 |  | 193 | 
N#Cc1ccc(-c2c[nH]c([C@H]3Cc4c([nH]c5ccccc45)[C@@H](C4CCOCC4)N3)n2)cc1 |  | 141 | 
Clc1ccc(-c2c[nH]c([C@H]3Cc4c([nH]c5ccccc45)[C@@H](C4CCOCC4)N3)n2)cc1 | 50 | 8.1 | 
c1ccc2c3c([nH]c2c1)[C@@H](C1CCOCC1)N[C@@H](c1nc(-c2ccncc2)c[nH]1)C3 | 432 | 163 | 
Clc1ccc(-c2c[nH]c([C@H]3Cc4c([nH]c5ccccc45)[C@@H](C4CCOCC4)N3)n2)nc1 | 199 | 74 | 
c1cnc(-c2c[nH]c([C@H]3Cc4c([nH]c5ccccc45)[C@@H](C4CCOCC4)N3)n2)nc1 | > 1000 | > 1330 | 
c1ccc2c3c([nH]c2c1)[C@@H](C1CCOCC1)N[C@@H](c1nc(-c2cscn2)c[nH]1)C3 | > 1000 | 786 | 
c1ccc2c3c([nH]c2c1)[C@@H](C1CCOCC1)N[C@@H](c1nc(-c2cnccn2)c[nH]1)C3 | 4500 | 782 | 
COc1cccc(-c2c[nH]c([C@H]3Cc4c([nH]c5ccccc45)[C@@H](C4CCOCC4)N3)n2)c1 | 17 | 4.6 | 
c1ccc(-c2nc([C@H]3Cc4c([nH]c5ccccc45)[C@@H](C4CCOCC4)N3)c[nH]2)cc1 | 405 | 487 | 
Cc1nc([C@]2(c3cnn(C)c3)N[C@@H](c3nc(-c4ccccc4)c[nH]3)Cc3c2[nH]c2ccccc32)no1 | 0.46 | 1.4 | 
Fc1ccc(-c2c[nH]c([C@H]3Cc4c([nH]c5ccccc45)[C@@H](C4CCOCC4)N3)n2)c(F)c1 | 37 | 23 | IC50 [18]: 634 nM
Cc1csc(-c2c[nH]c([C@H]3Cc4c([nH]c5ccccc45)[C@@H](C4CCOCC4)N3)n2)c1 | 138 | 34 | 
Cn1c2c(c3ccccc31)C[C@H](c1nc(-c3ccc(F)cc3)c[nH]1)N[C@@H]2C1CCOCC1 | 150 | 26 | 
COc1cccc(-c2c[nH]c([C@H]3Cc4c([nH]c5ccccc45)[C@@](c4cnn(C)c4)(c4noc(C)n4)N3)n2)n1 | 17 | 2.9 | 

SMILES | EC50 [3] [nM] | IC50 [17] [nM] | other results
N#Cc1cccc(-c2c[nH]c([C@H]3Cc4c([nH]c5ccccc45)[C@@H](C4CCOCC4)N3)n2)c1 | 435 | 37 | 
COc1ccc(-c2c[nH]c([C@H]3Cc4c([nH]c5ccccc45)[C@@H](C4CCOCC4)N3)n2)cc1 | 181 | 127 | 
c1ccc2c3c([nH]c2c1)[C@@H](C1CCOCC1)N[C@@H](c1nc(-c2csc4ccccc24)c[nH]1)C3 | 11 | 10 | 
FC(F)(F)Oc1ccc(-c2c[nH]c([C@H]3Cc4c([nH]c5ccccc45)[C@@H](C4CCOCC4)N3)n2)cc1 | > 1000 | 639 | 
COc1cccc(-c2c[nH]c([C@H]3Cc4c([nH]c5ccccc45)[C@@H](C4CCOCC4)N3)n2)n1 | 3.1 | 8 | IC50 [18]: 1020 nM
Oc1ccc(-c2c[nH]c([C@H]3Cc4c([nH]c5ccccc45)[C@@H](C4CCOCC4)N3)n2)cc1 | 26 | 34 | 
c1ccc2c3c([nH]c2c1)[C@@H](C1CCOCC1)N[C@@H](c1nc(-c2nccs2)c[nH]1)C3 | > 1000 | > 1330 | 
c1ccc(-c2ccc(-c3c[nH]c([C@H]4Cc5c([nH]c6ccccc56)[C@@H](C5CCOCC5)N4)n3)cc2)cc1 | > 1000 | 391 | 
c1ccc(-c2c[nH]c([C@H]3Cc4c([nH]c5ccccc45)[C@@H](C4CCOCC4)N3)n2)nc1 | 196 | 109 | 
Clc1ccc(-c2c[nH]c([C@H]3Cc4c([nH]c5ccccc45)[C@@H](C4CCOCC4)N3)n2)s1 | 206 | 17 | 
FC(F)(F)Oc1cccc(-c2c[nH]c([C@H]3Cc4c([nH]c5ccccc45)[C@@H](C4CCOCC4)N3)n2)c1 | > 1000 | 43 | IC50 [18]: 58 nM
Fc1ccc(-c2c[nH]c([C@H]3Cc4c([nH]c5ccccc45)[C@@H](C4CCOCC4)N3)n2)cc1F | 6.4 | 1.8 | 
c1ccc2c3c([nH]c2c1)C(C1CCOCC1)NC(c1nc(C2CCCCC2)c[nH]1)C3 (stereo not drawn) | 691 | 230 | 
Fc1ccc(-c2n[nH]c([C@H]3Cc4c([nH]c5ccccc45)[C@@H](C4CCOCC4)N3)n2)cc1 | 201 | 282 | 
Cc1nc([C@@]2(c3cnn(C)c3)N[C@@H](c3nc(-c4ccccc4)c[nH]3)Cc3c2[nH]c2ccccc32)no1 | 3.3 | 2.6 | 
c1ccc2c(-c3c[nH]c([C@H]4Cc5c([nH]c6ccccc56)[C@@H](C5CCOCC5)N4)n3)c[nH]c2c1 |  | 133 | 
Fc1ccc(-c2c[nH]c([C@H]3Cc4c([nH]c5ccccc45)[C@@H](C4CCOCC4)N3)n2)nc1 | 67 | 39 | 
Cc1nc([C@]2(c3cnn(C)c3)N[C@@H](c3nc(-c4ccccn4)c[nH]3)Cc3c2[nH]c2ccccc32)no1 | 5.5 | 9.4 | 
FC(F)(F)c1ccc(-c2c[nH]c([C@H]3Cc4c([nH]c5ccccc45)[C@@H](C4CCOCC4)N3)n2)cc1 | 1520 | 26 | 
CC(C)(C)c1c[nH]c(C2Cc3c([nH]c4ccccc34)C(C3CCOCC3)N2)n1 (stereo not drawn) | 1010 | 150 | IC50 [18]: 2940 nM
Cc1[nH]c([C@H]2Cc3c([nH]c4ccccc34)[C@@H](C3CCOCC3)N2)nc1-c1ccccc1 | > 1000 | 573 | 
c1ccc2c3c([nH]c2c1)C(C1CCOCC1)NC(c1nc(C24CC5CC(CC(C5)C2)C4)c[nH]1)C3 (stereo not drawn) | > 1000 | 25 | IC50 [18]: 506 nM
Fc1ccc(-c2cc([C@H]3Cc4c([nH]c5ccccc45)[C@@H](C4CCOCC4)N3)[nH]n2)cc1 | 938 | 280 | 
Cn1cc(-c2ccc(F)cc2)nc1[C@H]1Cc2c([nH]c3ccccc23)[C@@H](C2CCOCC2)N1 | > 1000 | 225 | 
CC1(c2nc(-c3ccccc3)c[nH]2)Cc2c([nH]c3ccccc23)C(C2CCOCC2)N1 (stereo in doubt; 6b) |  | 603 | IC50 [18]: 2950 nM
CC1(c2nc(-c3ccccc3)c[nH]2)Cc2c([nH]c3ccccc23)C(C2CCOCC2)N1 (stereo in doubt; 6c) |  | > 1330 | IC50 [18]: 1630 nM
CC1(c2nc(-c3ccccc3)c[nH]2)Cc2c([nH]c3ccccc23)C(C2CCOCC2)N1 (stereo in doubt; 6d) | > 1000 | 102 | IC50 [18]: 530 nM
